Test results taken from publication PMC8905313, “Overexpression of ABCB1 Associated With the Resistance to the KRAS-G12C Specific Inhibitor ARS-1620 in Cancer Cells” (Frontiers in Pharmacology, 2022).

Target: T1, ABCB1 (Homo sapiens, UniProt P08183)
T1 construct: ABCB1 membrane vesicles
Assay: vanadate-sensitive ATPase stimulation in ABCB1 membrane vesicles; supported by HPLC efflux and [3H]-paclitaxel accumulation in KB-C2 cells
Assay type: biochemical

T1 sequence (P08183 whole entry): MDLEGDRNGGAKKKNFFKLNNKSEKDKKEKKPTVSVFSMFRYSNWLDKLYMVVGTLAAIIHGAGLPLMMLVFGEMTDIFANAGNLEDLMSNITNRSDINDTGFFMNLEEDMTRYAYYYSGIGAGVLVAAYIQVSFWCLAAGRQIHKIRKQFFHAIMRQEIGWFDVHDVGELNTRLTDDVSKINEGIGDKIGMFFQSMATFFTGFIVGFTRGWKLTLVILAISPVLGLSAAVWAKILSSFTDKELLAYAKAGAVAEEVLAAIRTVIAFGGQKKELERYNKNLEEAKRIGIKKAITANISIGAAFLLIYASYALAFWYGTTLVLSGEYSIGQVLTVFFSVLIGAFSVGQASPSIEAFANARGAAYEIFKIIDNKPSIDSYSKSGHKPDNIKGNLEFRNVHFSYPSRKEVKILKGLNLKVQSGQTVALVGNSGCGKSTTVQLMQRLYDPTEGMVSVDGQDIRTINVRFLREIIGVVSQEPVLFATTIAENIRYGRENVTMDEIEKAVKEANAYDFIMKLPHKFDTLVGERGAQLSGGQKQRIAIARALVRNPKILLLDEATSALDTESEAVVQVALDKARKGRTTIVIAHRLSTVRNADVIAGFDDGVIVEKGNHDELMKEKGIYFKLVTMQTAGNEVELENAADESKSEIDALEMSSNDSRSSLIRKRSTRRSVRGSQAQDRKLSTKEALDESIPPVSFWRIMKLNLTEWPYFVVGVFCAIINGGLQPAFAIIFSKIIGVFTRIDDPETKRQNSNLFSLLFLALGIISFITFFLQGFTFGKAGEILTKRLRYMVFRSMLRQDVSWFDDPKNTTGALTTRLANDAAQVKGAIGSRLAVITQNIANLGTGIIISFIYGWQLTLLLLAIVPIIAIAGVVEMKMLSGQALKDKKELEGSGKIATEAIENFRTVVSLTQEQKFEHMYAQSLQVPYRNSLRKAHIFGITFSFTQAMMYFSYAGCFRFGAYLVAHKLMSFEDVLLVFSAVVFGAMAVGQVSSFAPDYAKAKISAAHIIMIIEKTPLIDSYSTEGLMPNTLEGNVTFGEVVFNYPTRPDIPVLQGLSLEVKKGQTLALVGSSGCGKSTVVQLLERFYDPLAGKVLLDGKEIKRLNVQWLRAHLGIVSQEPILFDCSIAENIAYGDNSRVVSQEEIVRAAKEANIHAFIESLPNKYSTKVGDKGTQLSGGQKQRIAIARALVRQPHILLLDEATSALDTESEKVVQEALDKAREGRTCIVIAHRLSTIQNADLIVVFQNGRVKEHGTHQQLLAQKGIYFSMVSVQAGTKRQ

EC50: 14.8 µM
Structure (SMILES): C=CC(=O)N1CCN(c2ncnc3c(F)c(-c4c(O)cccc4F)c(Cl)cc23)CC1 [ARS-1620]
